Read-outs that look alike come from different tables or passages of the source.
Target: T1, SIRT1 (Homo sapiens, UniProt Q96EB6)
T1 sequence (Q96EB6 1-747): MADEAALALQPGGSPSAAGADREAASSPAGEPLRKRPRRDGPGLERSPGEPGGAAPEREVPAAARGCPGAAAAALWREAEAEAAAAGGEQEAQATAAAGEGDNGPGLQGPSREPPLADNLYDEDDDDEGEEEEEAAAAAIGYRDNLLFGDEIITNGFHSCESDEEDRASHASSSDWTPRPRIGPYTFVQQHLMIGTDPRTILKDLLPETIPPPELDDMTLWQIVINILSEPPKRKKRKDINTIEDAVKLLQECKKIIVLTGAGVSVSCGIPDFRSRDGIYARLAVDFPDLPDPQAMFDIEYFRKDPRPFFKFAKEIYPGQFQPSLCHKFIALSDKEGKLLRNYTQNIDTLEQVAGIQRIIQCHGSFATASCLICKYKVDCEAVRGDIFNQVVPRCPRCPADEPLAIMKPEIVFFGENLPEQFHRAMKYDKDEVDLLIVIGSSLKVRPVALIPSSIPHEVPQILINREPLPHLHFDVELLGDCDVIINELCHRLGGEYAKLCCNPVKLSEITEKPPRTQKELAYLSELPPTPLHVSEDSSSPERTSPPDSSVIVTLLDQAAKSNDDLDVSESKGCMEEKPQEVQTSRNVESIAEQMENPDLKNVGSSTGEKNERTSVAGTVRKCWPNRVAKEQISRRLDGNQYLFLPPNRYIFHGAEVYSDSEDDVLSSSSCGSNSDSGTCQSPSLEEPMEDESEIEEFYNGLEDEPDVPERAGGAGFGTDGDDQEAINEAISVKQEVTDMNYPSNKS
Experiment: Mass spectrometry based SIRT1 deacetylase activation assay (acetylated p53-derived peptide substrate)
Format: biochemical

[1] = 0.5 μM peptide substrate, 120 μM βNAD+, 10 nM SIRT1, 25 min at 25° C.
[2] = 0.5 μM peptide substrate, 120 μM βNAD+, 10 nM SIRT1, 25 min at 25° C., read-out: EC1.5
[3] = 0.5 μM peptide substrate, 120 μM βNAD+, 10 nM SIRT1, 25 minutes at 25° C.

| SMILES | Fold Act. (percent maximum fold activation) [1] | EC1.5 [2] | EC1.5 [3] | Fold Act. (percent maximum fold activation) [3] | other results |
| --- | --- | --- | --- | --- | --- |
| O=C(Nc1cccc(OCC(O)CO)c1)c1cccc2[nH]c(-c3ccccc3C(F)(F)F)nc12 (stereo not drawn) [Compound 478] | A (Fold activation >200%) | < 1000 nM |  |  |  |
| Cc1cnc(NC(=O)c2cccc3[nH]c(-c4ccc5c(c4)CC(C)(C)O5)nc23)s1 [Compound 500] | A (Fold activation >200%) | < 1000 nM |  |  |  |
| O=C(Nc1ccccn1)c1cccc2[nH]c(-c3ccc(OCCN4CCOCC4)cc3C(F)F)nc12 [Compound 723, 2-(2-(difluoromethyl)-4-(2-morpholinoethoxy)phenyl)-N-(pyridin-2-yl)-1H-benzo[d]imidazole-7-carboxamide] |  |  | A (EC1.5<1.0 uM) | A (Fold activation >200%) |  |
| O=C(Nc1nccs1)c1cc(N2CCOCC2)cc2[nH]c(-c3cc(F)ccc3C(F)(F)F)nc12 [Compound 644] |  |  | A (EC1.5<1.0 uM) | A (Fold activation >200%) |  |
| O=C(Nc1nccs1)c1cccc2[nH]c(-c3ccccc3C(F)F)nc12 [Compound 514] | A (Fold activation >200%) | < 1000 nM |  |  |  |
| Cc1nc(NC(=O)c2cccc3[nH]c(-c4ccccc4OCCN4CCOCC4)nc23)sc1C [Compound 476] | A (Fold activation >200%) | 1000 to 25000 nM |  |  |  |
| O=C(Nc1nccs1)c1cccc2[nH]c(-c3ccc(-c4nnn[nH]4)cc3)nc12 [Compound 348] |  |  |  |  | EC1.5: A (EC1.5<1.0 uM); Fold Act. (percent maximum fold activation): A (Fold activation >200%) |
| C[C@@H]1CN(CCOc2ccccc2-c2nc3c(C(=O)Nc4ccccn4)cccc3[nH]2)C[C@H](C)O1 [Compound 610] |  |  | B (EC1.5 1-25 uM) | A (Fold activation >200%) |  |
| O=C(Nc1ccccn1)c1cncc2[nH]c(-c3ccc(N4CCOCC4)cc3C(F)F)nc12 [Compound 806] |  |  | A (EC1.5<1.0 uM) | A (Fold activation >200%) |  |
| O=C(Nc1cccnn1)c1cc(N2CCOCC2)cc2[nH]c(-c3ccc(F)cc3C(F)F)nc12 [Compound 752] |  |  | A (EC1.5<1.0 uM) | A (Fold activation >200%) |  |
| O=C(Nc1cccnc1)c1cc(N2CCOCC2)cc2[nH]c(-c3ccccc3C(F)(F)F)nc12 [Compound 630] |  |  | A (EC1.5<1.0 uM) | A (Fold activation >200%) |  |
| Cc1cc(Cl)cc(-c2nc3c(C(=O)Nc4ccccn4)cccc3[nH]2)c1OCCN1CCOCC1 [Compound 506] | B (Fold Activation <200%) | 1000 to 25000 nM |  |  |  |
| CS(=O)(=O)c1ccc(F)cc1-c1nc2c(C(=O)Nc3ccccn3)cccc2[nH]1 [Compound 658] |  |  | A (EC1.5<1.0 uM) | A (Fold activation >200%) |  |
| Cc1ccc(NC(=O)c2cccc3[nH]c(-c4ccc(CN5CCCC5)cc4C(F)(F)F)nc23)cc1 [Compound 870, 2-(4-(pyrrolidin-1-ylmethyl)-2-(trifluoromethyl)phenyl)-N-p-tolyl-1H-benzo[d]imidazole-4-carboxamide] |  |  | A (EC1.5<1.0 uM) | A (Fold activation >200%) |  |
| O=C(Nc1cccc(OC2CCNCC2)c1)c1cccc2[nH]c(-c3ccccc3C(F)(F)F)nc12 [Compound 597] | A (Fold activation >200%) | < 1000 nM |  |  |  |
| Cc1ccc(OCCN2CCOCC2)c(-c2nc3c(C(=O)Nc4ccccn4)cccc3[nH]2)c1 [Compound 546] | A (Fold activation >200%) | 1000 to 25000 nM |  |  |  |
| C[C@@H]1CN(c2ccc(-c3nc4c(C(=O)Nc5ccccn5)cccc4[nH]3)c(C(F)(F)F)c2)C[C@H](C)O1 [Compound 571] | A (Fold activation >200%) | < 1000 nM |  |  |  |
| O=C(Nc1nc(CN2CCOCC2)cs1)c1cccc2[nH]c(-c3ccc(F)cc3C(F)F)nc12 [Compound 846] |  |  | A (EC1.5<1.0 uM) | A (Fold activation >200%) |  |
| O=C(Nc1nc(CN2CCOCC2)cs1)c1cccc2[nH]c(-c3cccc(Cl)c3)nc12 [Compound 796] |  |  | B (EC1.5 1-25 uM) | B (Fold Activation <200%) |  |
| O=C(Nc1nccs1)c1cccc2[nH]c(-c3ccccc3N3CCCC3)nc12 [Compound 280] |  |  |  |  | EC1.5: B (EC1.5 1-25 uM); Fold Act. (percent maximum fold activation): A (Fold activation >200%) |
| CC(C)N1CCN(c2cccc(-c3nc4c(C(=O)Nc5nccs5)cccc4[nH]3)c2)CC1 [Compound 529] | A (Fold activation >200%) | < 1000 nM |  |  |  |

| SMILES | Fold Act. (percent maximum fold activation) [1] | EC1.5 [2] | EC1.5 [3] | Fold Act. (percent maximum fold activation) [3] | other results |
| --- | --- | --- | --- | --- | --- |
| O=C(Nc1cccc2[nH]c(-c3cccc(N4CCOCC4)c3)nc12)c1cnccn1 [Compound 388] |  |  |  |  | EC1.5: B (EC1.5 1-25 uM); Fold Act. (percent maximum fold activation): A (Fold activation >200%) |
| O=C(Nc1ccc(CN2CCCC2)nc1)c1cccc2[nH]c(-c3ccc(Cl)cc3C(F)(F)F)nc12 [Compound 685] |  |  | A (EC1.5<1.0 uM) | A (Fold activation >200%) |  |
| O=C(Nc1nccs1)c1cccc2[nH]c(-c3ncccc3C(F)(F)F)nc12 [Compound 296] |  |  |  |  | EC1.5: B (EC1.5 1-25 uM); Fold Act. (percent maximum fold activation): A (Fold activation >200%) |
| O=C(NC1CCOCC1)c1cccc2[nH]c(-c3cc(F)ccc3C(F)(F)F)nc12 [Compound 437] | B (Fold Activation <200%) | > 25000 nM |  |  |  |
| O=C(NC1CCOC1=O)c1cccc2[nH]c(-c3cc(F)ccc3C(F)(F)F)nc12 (stereo not drawn) [Compound 378] |  |  |  |  | EC1.5: C (EC1.5 >25 uM); Fold Act. (percent maximum fold activation): B (Fold Activation <200%) |
| O=C(Nc1nccs1)c1cccc2[nH]c(-c3ccc4ccccc4c3)nc12 [Compound 228] |  |  |  |  | EC1.5: B (EC1.5 1-25 uM); Fold Act. (percent maximum fold activation): A (Fold activation >200%) |
| O=C(NCc1ccccn1)c1cccc2[nH]c(-c3ccccc3C(F)(F)F)nc12 [Compound 420] | A (Fold activation >200%) | 1000 to 25000 nM |  |  |  |
| Cc1cc(C)nc(NC(=O)c2cccc3[nH]c(-c4ccc(N5CCOCC5)cc4C(F)(F)F)nc23)c1 [Compound 590] | A (Fold activation >200%) | < 1000 nM |  |  |  |
| Cc1nc(NC(=O)c2cccc3[nH]c(-c4cnc5c(c4)OCCN5C)nc23)sc1C [Compound 458] | A (Fold activation >200%) | < 1000 nM |  |  |  |
| Cc1cnc(NC(=O)c2cncc3[nH]c(-c4ccc(OC[C@@H](O)CO)cc4C(F)(F)F)nc23)s1 [Compound 759] |  |  | A (EC1.5<1.0 uM) | A (Fold activation >200%) |  |
| CS(=O)(=O)c1ccccc1-c1nc2c(C(=O)Nc3ccccn3)cccc2[nH]1 [Compound 519] | A (Fold activation >200%) | < 1000 nM |  |  |  |
| c1cncc(CNc2cccc3[nH]c(-c4cccc(N5CCOCC5)c4)nc23)c1 [Compound 619] |  |  | B (EC1.5 1-25 uM) | B (Fold Activation <200%) |  |
| CS(=O)(=O)c1cccc(-c2nc3c(C(=O)Nc4nccs4)cccc3[nH]2)c1 [Compound 402] | A (Fold activation >200%) | < 1000 nM |  |  |  |
| O=C(Nc1ccncc1)c1cccc2[nH]c(-c3ccccc3C(F)(F)F)nc12 [Compound 262] |  |  |  |  | EC1.5: A (EC1.5<1.0 uM); Fold Act. (percent maximum fold activation): A (Fold activation >200%) |
| O=C(Nc1nccs1)c1cc(N2CCOCC2)cc2[nH]c(-c3ccc(F)cc3C(F)(F)F)nc12 [Compound 689] |  |  | A (EC1.5<1.0 uM) | A (Fold activation >200%) |  |
| O=C(Nc1ccccn1)c1cccc2[nH]c(-c3ccnc(N4CCCC4)c3)nc12 [Compound 540] | A (Fold activation >200%) | < 1000 nM |  |  |  |
| O=C(Nc1cccc2[nH]c(-c3cccc(C(F)(F)F)c3)nc12)c1cccnc1 [Compound 334] |  |  |  |  | EC1.5: B (EC1.5 1-25 uM); Fold Act. (percent maximum fold activation): A (Fold activation >200%) |
| O=C(Nc1cccc2[nH]c(-c3ccccc3C(F)(F)F)nc12)c1cscn1 [Compound 363] |  |  |  |  | EC1.5: B (EC1.5 1-25 uM); Fold Act. (percent maximum fold activation): A (Fold activation >200%) |
| CS(=O)(=O)c1ccccc1-c1nc2c(C(=O)Nc3cccnc3)cccc2[nH]1 [Compound 518] | A (Fold activation >200%) | 1000 to 25000 nM |  |  |  |
| O=C(Nc1ccccn1)c1cccc2[nH]c(-c3ccc(Cl)cc3C(F)(F)F)nc12 [Compound 313] |  |  |  |  | EC1.5: A (EC1.5<1.0 uM); Fold Act. (percent maximum fold activation): A (Fold activation >200%) |
| O=C(Nc1nccs1)c1cncc2[nH]c(-c3ccccc3C(F)(F)F)nc12 [Compound 341, N-(thiazol-2-yl)-2-(2-(trifluoromethyl)phenyl)-3H-imidazo[4,5-c]pyridine-7-carboxamide] |  |  |  |  | EC1.5: A (EC1.5<1.0 uM); Fold Act. (percent maximum fold activation): A (Fold activation >200%) |

— US8846947B2, “Benzimidazoles and related analogs as sirtuin modulators” (GlaxoSmithKline LLC, priority 2008, dated 2014)
